Assay results reported in US20050245537A1, “Use of compounds having ccr antagonism” (priority 2002, published 2005).

Tested on: Mouse Skin Graft Rejection Model
Test: Mouse skin graft rejection model
Assay type: in vivo
From the text: Effects of a Compound with Respect to a Mouse Skin Graft Rejection Model

SMILES: Cc1ccc(-c2ccc3c(c2)C=C(C(=O)Nc2ccc(C[N+](C)(C)C4CCOCC4)cc2)CCC3)cc1.[Cl-] [N,N-dimethyl-N-(4-[[[2-(4-methylphenyl)-6,7-dihydro-5H-benzocyclohepten-8-yl]carbonyl]amino]benzyl]tetrahydro-2H-pyran-4-ammonium chloride]
- graft rejection suppression effect (10 mg/kg subdermally once a day, P<0.05 vs. control, log-rank test): significant
- number of days of skin graft life (donor mouse B6-CH-2^bm12 abdominal skin grafted onto recipient mouse (B6/129), 10 mg/kg subdermally once a day from the day of grafting, n=7, control group 13.0±2.8 days (n=6)): 19.6 ± 4.4 days
